# Tested on: beta-TC6 cells
# Test: Insulin HTRF assay (relative activity Ar) in beta-TC6 cells
# Assay type: cell-based, mouse
# Settings: Mus musculus, Beta-TC6, 4 h, insulin HTRF, supernatant of beta-TC6 cells, incubation with test compound at 37°C for 2, 3, 4h; read-out: Ar (relative activity)
# Summary of the method: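 beta-TC6 cells (15k/well, seeded 24 or 48 h) washed, then exposed to compound in induction buffer (0.5% DMSO final) for 2, 3 or 4 h at 37°C.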
row,SMILES,Emax [%]
1,"CNc1nc2cnc(Nc3ccc4c(c3)OCCO4)cc2n1-c1cc(OC)c(OC)c(OC)c1 [Compound 487, N6-(2,3-dihydro-1,4-benzodioxin-6-yl)-N2-methyl-1-(3,4,5-trimethoxyphenyl)imidazo[4,5-c]pyridine-2,6-diamine]",50 to 100
2,"c1ccc(Cn2cnc3c(NCc4ccco4)nccc32)cc1 [Compound 451, 1-benzyl-N-(2-furylmethyl)imidazo[4,5-c]pyridin-4-amine]",0 to 30
3,"COc1cccc(-c2nc3c(N4CCOCC4)nccc3[nH]2)c1 [Compound 375, 4-[2-(3-methoxyphenyl)-1H-imidazo[4,5-c]pyridin-4-yl]morpholine]",30 to 50
4,"CNc1nc2cnc(Nc3ccc(OC)c(OC)c3)cc2n1-c1ccccc1 [Compound 506, N6-(3,4-dimethoxyphenyl)-N2-methyl-1-phenyl-imidazo[4,5-c]pyridine-2,6-diamine]",50 to 100
5,"COc1ccccc1-c1cc2c(Nc3ccc(C(N)=O)cc3)nccc2[nH]1 [Compound 294, 4-[[2-(2-methoxyphenyl)-1H-pyrrolo[3,2-c]pyridin-4-yl]amino]benzamide]",50 to 100
6,"COc1cccc(-c2nc3c(NCC4CC4)nccc3[nH]2)c1 [Compound 376, N-(cyclopropylmethyl)-2-(3-methoxyphenyl)-1H-imidazo[4,5-c]pyridin-4-amine]",30 to 50
7,"CN(C)C(=O)c1ccc(-c2cc3cnc(N(C)c4ccccc4)cc3n2C)cc1 [Compound 52, N,N-dimethyl-4-[1-methyl-6-(N-methylanilino)pyrrolo[3,2-c]pyridin-2-yl]benzamide]",30 to 50
8,"c1cc2[nH]c(-c3ccsc3)cc2c(Nc2ccc3c(c2)OCO3)n1 [Compound 263, N-(1,3-benzodioxol-5-yl)-2-(3-thienyl)-1H-pyrrolo[3,2-c]pyridin-4-amine]",50 to 100
9,"COc1ccc(Nc2nccc3[nH]c(-c4cccc(F)c4)nc23)cc1OC [Compound 404, N-(3,4-dimethoxyphenyl)-2-(3-fluorophenyl)-1H-imidazo[4,5-c]pyridin-4-amine]",> 100
10,"Fc1ccc(-c2nc3ccncc3[nH]2)cc1 [Compound 775, 2-(4-fluorophenyl)-3H-imidazo[4,5-c]pyridine]",0 to 30
11,"Oc1ccc(Nc2nccc3[nH]c(-c4cccc(F)c4)cc23)cc1 [Compound 199, 4-[[2-(3-fluorophenyl)-1H-pyrrolo[3,2-c]pyridin-4-yl]amino]phenol]",50 to 100
12,"CN(C)C(=O)c1ccc(-c2cc3cnc(Nc4ccc(Oc5ccccc5)cc4)cc3[nH]2)cc1 [Compound 25, N,N-dimethyl-4-[6-(4-phenoxyanilino)-1H-pyrrolo[3,2-c]pyridin-2-yl]benzamide]",0 to 30
13,"CC(=O)Nc1ccc(Nc2cc3c(cn2)nc(-c2ccccc2)n3C)cc1 [Compound 702, N-[4-[(1-methyl-2-phenyl-imidazo[4,5-c]pyridin-6-yl)amino]phenyl]acetamide]",50 to 100
14,"COc1cc(Nc2cc3c(cn2)cc(-c2cnn(C)c2)n3C)cc(OC)c1OC [Compound 125, 1-methyl-2-(1-methylpyrazol-4-yl)-N-(3,4,5-trimethoxyphenyl)pyrrolo[3,2-c]pyridin-6-amine]",> 100
15,"CNc1nc2cnc(Nc3cc(OC)c(OC)c(OC)c3)cc2n1-c1cc(OC)c(OC)c(OC)c1 [Compound 482, N2-methyl-N6,1-bis(3,4,5-trimethoxyphenyl)imidazo[4,5-c]pyridine-2,6-diamine]",30 to 50
16,"Cn1cc(-c2cc3cnc(Nc4ccc5c(c4)OCCO5)cc3[nH]2)cn1 [Compound 122, N-(2,3-dihydro-1,4-benzodioxin-6-yl)-2-(1-methylpyrazol-4-yl)-1H-pyrrolo[3,2-c]pyridin-6-amine]",30 to 50
17,"CC(=O)Nc1cccc(Nc2cc3[nH]c(-c4cn[nH]c4)cc3cn2)c1 [Compound 117, N-[3-[[2-(1H-pyrazol-4-yl)-1H-pyrrolo[3,2-c]pyridin-6-yl]amino]phenyl]acetamide]",> 100
18,"c1ccc(CNc2nccc3[nH]c(-c4cccnc4)nc23)cc1 [Compound 360, N-benzyl-2-(3-pyridyl)-1H-imidazo[4,5-c]pyridin-4-amine]",0 to 30
19,"CNc1nc2cnc(-c3ccc4c(c3)OCO4)cc2n1-c1cccc(F)c1 [Compound 885, 6-(1,3-benzodioxol-5-yl)-1-(3-fluorophenyl)-N-methyl-imidazo[4,5-c]pyridin-2-amine]",0 to 30
20,"c1ccc(Cn2c(-c3cccnc3)cc3cnc(Nc4ccncn4)cc32)cc1 [Compound 99, 1-benzyl-2-(3-pyridyl)-N-pyrimidin-4-yl-pyrrolo[3,2-c]pyridin-6-amine]",30 to 50
21,"CN(C)C(=O)c1ccc(Nc2cc3c(cn2)cc(-c2cnn(C)c2)n3C)cc1 [Compound 148, N,N-dimethyl-4-[[1-methyl-2-(1-methylpyrazol-4-yl)pyrrolo[3,2-c]pyridin-6-yl]amino]benzamide]",> 100

row,SMILES,Emax [%]
1,"CCN(CC)CCNC(=O)c1ccc(Nc2nccc3[nH]c(-c4ccncc4)nc23)cc1 [Compound 425, N-(2-diethylaminoethyl)-4-[[2-(4-pyridyl)-1H-imidazo[4,5-c]pyridin-4-yl]amino]benzamide]",50 to 100
2,"c1ccc(-c2cc3c(Nc4ccccn4)nccc3[nH]2)cc1 [Compound 321, 2-phenyl-N-(2-pyridyl)-1H-pyrrolo[3,2-c]pyridin-4-amine]",30 to 50
3,"COCCNc1nc2cnc(-c3ccc(OC)nc3)cc2n1C [Compound 751, N-(2-methoxyethyl)-6-(6-methoxy-3-pyridyl)-1-methyl-imidazo[4,5-c]pyridin-2-amine]",0 to 30
4,"Cc1cccc(Nc2cc3c(cn2)nc(-c2ccco2)n3C)c1 [Compound 709, 2-(2-furyl)-1-methyl-N-(m-tolyl)imidazo[4,5-c]pyridin-6-amine]",50 to 100
5,"Cn1c(NCC2CCCO2)nc2cnc(Nc3cccc(OC(F)(F)F)c3)cc21 (stereo not shown) [Compound 755, 1-methyl-N2-(tetrahydrofuran-2-ylmethyl)-N6-[3-(trifluoromethoxy)phenyl]imidazo[4,5-c]pyridine-2,6-diamine]",0 to 30
6,"CNc1nc2cnc(Nc3ccc(F)c(Cl)c3)cc2n1-c1cc(OC)c(OC)c(OC)c1 [Compound 753, N6-(3-chloro-4-fluoro-phenyl)-N2-methyl-1-(3,4,5-trimethoxyphenyl)imidazo[4,5-c]pyridine-2,6-diamine]",0 to 30
7,"COc1ccc(OC)c(CCNc2nc3cnc(-c4cccs4)cc3n2C)c1 [Compound 595, N-[2-(2,5-dimethoxyphenyl)ethyl]-1-methyl-6-(2-thienyl)imidazo[4,5-c]pyridin-2-amine]",30 to 50
8,"CNc1nc2cnc(Nc3ccc(C(C)C)cc3)cc2n1CCOC [Compound 498, N6-(4-isopropylphenyl)-1-(2-methoxyethyl)-N2-methyl-imidazo[4,5-c]pyridine-2,6-diamine]",30 to 50
9,"COc1ccc(OC)c(CCNc2nc3cnc(-c4cccc(O)c4)cc3n2C)c1 [Compound 820, 3-[2-[2-(2,5-dimethoxyphenyl)ethylamino]-1-methyl-imidazo[4,5-c]pyridin-6-yl]phenol]",30 to 50
10,"CNc1nc2cnc(Nc3ccc(OC)cc3OC)cc2n1C [Compound 610, N6-(2,4-dimethoxyphenyl)-N2,1-dimethyl-imidazo[4,5-c]pyridine-2,6-diamine]",50 to 100
11,"COc1cccc(-c2nc3c(Nc4ccccc4)nccc3[nH]2)c1 [Compound 370, 2-(3-methoxyphenyl)-N-phenyl-1H-imidazo[4,5-c]pyridin-4-amine]",30 to 50
12,"COc1cccc(Nc2nccc3[nH]c(-c4ccco4)nc23)c1 [Compound 464, 2-(2-furyl)-N-(3-methoxyphenyl)-1H-imidazo[4,5-c]pyridin-4-amine]",30 to 50
13,"COc1ccc(CNc2nc3cnc(Nc4ccc(C(N)=O)cc4)cc3n2C)cc1OC [Compound 601, 4-[[2-[(3,4-dimethoxyphenyl)methylamino]-1-methyl-imidazo[4,5-c]pyridin-6-yl]amino]benzamide]",50 to 100
14,"CNc1nc2cnc(Nc3cccc(NC(C)=O)c3)cc2n1Cc1ccccc1 [Compound 538, N-[3-[[1-benzyl-2-(methylamino)imidazo[4,5-c]pyridin-6-yl]amino]phenyl]acetamide]",50 to 100
15,"COc1cccc(-c2cc3c(Nc4cccnc4)nccc3[nH]2)c1 [Compound 308, 2-(3-methoxyphenyl)-N-(3-pyridyl)-1H-pyrrolo[3,2-c]pyridin-4-amine]",50 to 100
16,"COc1ccc(Nc2cc3c(cn2)ncn3C)c(OC)c1 [Compound 727, N-(2,4-dimethoxyphenyl)-1-methyl-imidazo[4,5-c]pyridin-6-amine]",50 to 100
17,"FC(F)(F)c1cccc(Nc2cc3[nH]c(-c4ccccn4)cc3cn2)c1 [Compound 66, 2-(2-pyridyl)-N-[3-(trifluoromethyl)phenyl]-1H-pyrrolo[3,2-c]pyridin-6-amine]",30 to 50
18,"CN1CCN(c2ccc(Nc3cc4c(cn3)cc(-c3cnn(C)c3)n4C)cc2)CC1 [Compound 133, 1-methyl-N-[4-(4-methylpiperazin-1-yl)phenyl]-2-(1-methylpyrazol-4-yl)pyrrolo[3,2-c]pyridin-6-amine]",50 to 100
19,"Cc1cccc(Nc2cc3[nH]c(-c4ccccn4)cc3cn2)c1 [Compound 64, N-(m-tolyl)-2-(2-pyridyl)-1H-pyrrolo[3,2-c]pyridin-6-amine]",50 to 100
20,"CC(=O)Nc1ccc(Nc2cc3c(cn2)ncn3Cc2ccco2)cc1 [Compound 692, N-[4-[[1-(2-furylmethyl)imidazo[4,5-c]pyridin-6-yl]amino]phenyl]acetamide]",30 to 50
21,"CC(C)Oc1ccc(Nc2nccc3[nH]c(-c4ccsc4)cc23)cc1 [Compound 269, N-(4-isopropoxyphenyl)-2-(3-thienyl)-1H-pyrrolo[3,2-c]pyridin-4-amine]",0 to 30

# Same assay, conditions: insulin HTRF, supernatant of beta-TC6 cells, incubation with test compound at 37°C for 2, 3, 4h
row,SMILES,Ar (relative activity)
1,"Sc1nc2cnccc2n1-c1ccccc1 [Compound 744, 1-phenylimidazo[4,5-c]pyridine-2-thiol]",++ (30 % ≤ Ar < 50 %)

# From EP2818472A1, “Imidazo[4,5-c]pyridine and pyrrolo[3,2-c]pyridine compounds as G-protein-coupled receptor kinase 5 (GRK5) modulators” (Max-Planck-Gesellschaft zur Förderung der Wissenschaften …, priority 2013, dated 2014)
